# Literature values as cited in patent US7910678B2, “Copolymers having 1-methyl-2-methoxyethyl moieties” (Abbott Laboratories, priority 2006, dated 2011).
# Read-outs that look alike come from different tables or passages of the source.
# System: mouse
Structure (SMILES),Oral-mouse LD50 (oral),"Oral-mouse LD50 (in vivo, po)"
COCCO [2-methoxyethanol],2560 mg/kg,–
CCO [ethanol],–,3450 mg/kg
CCOCCO [2-ethoxyethanol],2451 mg/kg,–
COCC(C)O (stereo not shown) [1-methoxy-2-propanol],11700 mg/kg,–
